{
  "source": "PubChem BioAssay AID2060908",
  "about": "(Molecular Pharmacology Branch, DTP, NCI, 2025);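 also: spheroids exposed to compounds for 7 days before viability read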",
  "tested_on": "186277-243-T-J2-PDC complex spheroids, viability",
  "assay": "Anticancer human tumor 186277-243-T-J2-PDC patient-derived colon adenocarcinoma cell line growth inhibition [RAS]",
  "conditions": "for IC50: curve of first compound; for viability, T/C: stronger effect = lower value",
  "from_the_text": "RAS pathway inhibitors in Combinations in Complex Spheroids\nA high-throughput screen of multi-cell type tumor spheroids was designed to identify active combinations of RAS pathway inhibitors and targeted small molecules. Complex spheroids include a stromal component modeled by human endothelial cells (HUVEC) and fibroblasts modeled by human mesenchymal stem cells (MSCs). The concentration ranges selected for each drug and investigational agent were based upon clinically achievable concentrations if the clinical Cmax of the agent was known.\nCompounds. The drugs and investigational agents: abemaciclib (NSC768073), cobimetinib (NSC768068), divarasib (GDC6063, NSC841802), docetaxel (NSC628503), GDC-1971 (RLY-1971, NSC841576), gemcitabine (NSC613327), inavolisib (NSC800729), ipatasertib (NSC767898), KB-0742 (NSC834161), MRTX-1133 (NSC836407), osimertinib (NSC779217), RMC-4630 (NSC839698), RMC-6236 (NSC851965), RMC-6291 (NSC852671), Ro-3306 (NSC812927), sapanisertib (NSC764658), SN-38 (NSC673596), staurosporine (NSC755774), SY5609 (NSC837396), and tovorafenib (DAY101, NSC766906), were obtained from the National Cancer Institute (NCI) Developmental Therapeutics Program Chemical Repository. The FDA-approved anticancer drug set is available from the NCI Developmental Therapeutics Program. […] The stock solutions were prepared in dimethyl sulfoxide (DMSO, Sigma-Aldrich, St. Louis, MO, cat. D2650) at 800-fold the tested concentration and stored at -70 degrees C prior to their use. All drugs and investigational agents were tested over a range starting from a high concentration at or near the clinical Cmax and decreasing in half-log increments. If the clinical Cmax for an agent had not been determined, the highest concentration tested was 10 microM.\nCell Culture. All cells were maintained in an incubator at 37 degrees C and 5% CO2 with 95% humidity. The PDC lines were cultured according to standard operating procedures established by the NCI PDMR. All PDCs were thawed and cultured in Matrigel-coated flasks prepared with a working solution of 1X Ham's F-12 nutrient mix, without supplementation (Invitrogen, Waltham, MA, cat. 11765054), 100 U/mL penicillin-streptomycin (Invitrogen, cat. 15140122), and 2.5% Matrigel (Corning Inc., Corning, NY, cat. 354248) for the first three passages. The 362531-283-R-J2-PDC and 782815-120-R-J1-PDC lines were cultured in 6C/Colon 1B media, which includes advanced DMEM/F-12 (Thermo Fisher Scientific, cat. 12634028), 10 mM HEPES (Thermo Fisher Scientific, cat. 15630080), 1X GlutaMAX supplement (Thermo Fisher Scientific, cat. 35050061), 0.1 mg/mL primocin (InvivoGen, San Diego, CA, cat. ant-pm-2), 10% defined fetal bovine serum, heat inactivated (HyClone Laboratories Inc., Logan, UT, cat. SH30070.03HI), 50% L-WRN conditioned media (ATCC, cat. CRL-3276), 1.25 mM N-Acetyl-L-cysteine (Sigma-Aldrich, cat. A9165), 10 mM nicotinamide (Sigma-Aldrich, cat. N0636), 1X B-27 supplement (Thermo Fisher Scientific, cat. 17504044), 1X N-2 supplement (Thermo Fisher Scientific, cat. 17502048), 50 ng/mL human EGF (Thermo Fisher Scientific, cat. PHG0311), and 10 microM Y-27632 dihydrochloride (Tocris Bioscience, cat. 1254). The K12877-001-R-J1-PDC line was cultured in 6I media, which includes all 6C/Colon 1B media plus 10 ng/mL human FGF-10 (PeproTech, cat. 100-26), 1 ng/mL human FGF-2 (PeproTech, cat. 100-18B), 1 µM prostaglandin E2 (Tocris Bioscience, cat. 2296), […] hydrocortisone (Sigma-Aldrich, cat. H4001), and […] bovine insulin (Sigma-Aldrich, cat. I6634). The K86415-001-R-J1-PDC line was cultured in 6D media, which includes all 6C/Colon 1B media components minus the L-WRN conditioned media. The 485176-168-R4-J1-PDC was cultured in PANC media, which includes all 6C/Colon 1B media plus 100 ng/mL human FGF-10 (PeproTech, cat. 100-26), 500 nM SB-431542 (Selleckchem, cat. S1067), and 10 nM gastrin (Tocris Bioscience, cat. 3006). […]",
  "data": [
    {"smiles": "C=CC(=O)N1CCN(c2nc(OCC3CCCN3C)nc3c(F)c(-c4nc(N)cc(C)c4C(F)(F)F)c(Cl)cc23)C(C)C1", "note": "(configuration not stated) + C#Cc1c(F)ccc2cc(O)cc(-c3ncc4c(N5CC6CCC(C5)N6)nc(OCC56CCCN5CC(F)C6)nc4c3F)c12", "values": [
      {"measurement": "IC50", "setting": "second compound 0.0316 µM", "result": "> 1000", "unit": "nM"},
      {"measurement": "IC50", "setting": "second compound 0.1 µM", "result": 325, "unit": "nM"},
      {"measurement": "IC50", "setting": "second compound 0.316 µM", "result": "< 3.16", "unit": "nM"},
      {"measurement": "IC50", "setting": "second compound 1 µM", "result": "< 3.16", "unit": "nM"},
      {"measurement": "IC50", "setting": "second compound 3.16 µM", "result": "< 3.16", "unit": "nM"},
      {"measurement": "IC50", "setting": "second compound 10 µM", "result": "< 3.16", "unit": "nM"},
      {"measurement": "viability, T/C", "setting": "second compound 0.0316 µM, first compound 0.00316 µM", "result": 75.1, "unit": "%"},
      {"measurement": "viability, T/C", "setting": "second compound 0.0316 µM, first compound 0.01 µM", "result": 97.6, "unit": "%"},
      {"measurement": "viability, T/C", "setting": "second compound 0.0316 µM, first compound 0.0316 µM", "result": 84.3, "unit": "%"},
      {"measurement": "viability, T/C", "setting": "second compound 0.0316 µM, first compound 0.1 µM", "result": 78.3, "unit": "%"},
      {"measurement": "viability, T/C", "setting": "second compound 0.0316 µM, first compound 0.316 µM", "result": 79.5, "unit": "%"},
      {"measurement": "viability, T/C", "setting": "second compound 0.0316 µM, first compound 1 µM", "result": 54.6, "unit": "%"},
      {"measurement": "viability, T/C", "setting": "second compound 0.1 µM, first compound 0.00316 µM", "result": 69.6, "unit": "%"},
      {"measurement": "viability, T/C", "setting": "second compound 0.1 µM, first compound 0.01 µM", "result": 73.7, "unit": "%"},
      {"measurement": "viability, T/C", "setting": "second compound 0.1 µM, first compound 0.0316 µM", "result": 60.4, "unit": "%"},
      {"measurement": "viability, T/C", "setting": "second compound 0.1 µM, first compound 0.1 µM", "result": 58.4, "unit": "%"},
      {"measurement": "viability, T/C", "setting": "second compound 0.1 µM, first compound 0.316 µM", "result": 53.1, "unit": "%"},
      {"measurement": "viability, T/C", "setting": "second compound 0.1 µM, first compound 1 µM", "result": 35.8, "unit": "%"},
      {"measurement": "viability, T/C", "setting": "second compound 0.316 µM, first compound 0.00316 µM", "result": 24.2, "unit": "%"},
      {"measurement": "viability, T/C", "setting": "second compound 0.316 µM, first compound 0.01 µM", "result": 35.7, "unit": "%"},
      {"measurement": "viability, T/C", "setting": "second compound 0.316 µM, first compound 0.0316 µM", "result": 37.8, "unit": "%"},
      {"measurement": "viability, T/C", "setting": "second compound 0.316 µM, first compound 0.1 µM", "result": 25.2, "unit": "%"},
      {"measurement": "viability, T/C", "setting": "second compound 0.316 µM, first compound 0.316 µM", "result": 33.2, "unit": "%"},
      {"measurement": "viability, T/C", "setting": "second compound 0.316 µM, first compound 1 µM", "result": 24.2, "unit": "%"},
      {"measurement": "viability, T/C", "setting": "second compound 1 µM, first compound 0.00316 µM", "result": 18.1, "unit": "%"},
      {"measurement": "viability, T/C", "setting": "second compound 1 µM, first compound 0.01 µM", "result": 19.1, "unit": "%"},
      {"measurement": "viability, T/C", "setting": "second compound 1 µM, first compound 0.0316 µM", "result": 19.1, "unit": "%"},
      {"measurement": "viability, T/C", "setting": "second compound 1 µM, first compound 0.1 µM", "result": 18.6, "unit": "%"},
      {"measurement": "viability, T/C", "setting": "second compound 1 µM, first compound 0.316 µM", "result": 19, "unit": "%"},
      {"measurement": "viability, T/C", "setting": "second compound 1 µM, first compound 1 µM", "result": 15.5, "unit": "%"},
      {"measurement": "viability, T/C", "setting": "second compound 3.16 µM, first compound 0.00316 µM", "result": 9.97, "unit": "%"},
      {"measurement": "viability, T/C", "setting": "second compound 3.16 µM, first compound 0.01 µM", "result": 14.1, "unit": "%"},
      {"measurement": "viability, T/C", "setting": "second compound 3.16 µM, first compound 0.0316 µM", "result": 12.5, "unit": "%"},
      {"measurement": "viability, T/C", "setting": "second compound 3.16 µM, first compound 0.1 µM", "result": 13.3, "unit": "%"},
      {"measurement": "viability, T/C", "setting": "second compound 3.16 µM, first compound 0.316 µM", "result": 15.5, "unit": "%"},
      {"measurement": "viability, T/C", "setting": "second compound 3.16 µM, first compound 1 µM", "result": 10.9, "unit": "%"},
      {"measurement": "viability, T/C", "setting": "second compound 10 µM, first compound 0.00316 µM", "result": 8.29, "unit": "%"},
      {"measurement": "viability, T/C", "setting": "second compound 10 µM, first compound 0.01 µM", "result": 9.21, "unit": "%"},
      {"measurement": "viability, T/C", "setting": "second compound 10 µM, first compound 0.0316 µM", "result": 11.5, "unit": "%"},
      {"measurement": "viability, T/C", "setting": "second compound 10 µM, first compound 0.1 µM", "result": 11, "unit": "%"},
      {"measurement": "viability, T/C", "setting": "second compound 10 µM, first compound 0.316 µM", "result": 11.3, "unit": "%"},
      {"measurement": "viability, T/C", "setting": "second compound 10 µM, first compound 1 µM", "result": 8.56, "unit": "%"}
    ]}
  ]
}
